{"source": "patent US20090186834A1", "about": "“DIPHENYLHETEROCYCLE CHOLESTEROL ABSORPTION INHIBITORS” (MICROBIA, INC., priority 2005, published 2009)", "origin": "cited, not measured here", "key": {"[1]": {"test_system": "absorption of taurocholic acid", "conditions": "in vivo"}, "[2]": {"test_system": "fat-SOluble vitamin absorption", "conditions": "in humans"}}}
{"smiles": "O=C1[C@H](CC[C@H](O)c2ccc(F)cc2)[C@@H](c2ccc(O)cc2)N1c1ccc(F)cc1", "note": "[ezetimibe, (3R,4S)-1-(4-fluorophenyl)-3-[(3S)-3-(4-fluorophenyl)-3-hydroxypropyl]-4-(4-hydroxyphenyl)azetidin-2-one]", "values": [{"measurement": "inhibition of the absorption of taurocholic acid", "setting": "[1]", "value": "does not inhibit"}, {"measurement": "effect on fat-SOluble vitamin absorption", "setting": "[2]", "value": "does not appear to affect"}]}
